Patent US11084829B2, “Ubiquitin-specific-processing protease 7 (USP7) modulators and uses thereof” (RAPT THERAPEUTICS, INC., priority 2018, dated 2021)

What follows are compounds tested against USP7 (Homo sapiens, UniProt Q93009) (assay: USP7 inhibitory potency (IC50)).
Sequence of USP7 (Q93009 whole entry): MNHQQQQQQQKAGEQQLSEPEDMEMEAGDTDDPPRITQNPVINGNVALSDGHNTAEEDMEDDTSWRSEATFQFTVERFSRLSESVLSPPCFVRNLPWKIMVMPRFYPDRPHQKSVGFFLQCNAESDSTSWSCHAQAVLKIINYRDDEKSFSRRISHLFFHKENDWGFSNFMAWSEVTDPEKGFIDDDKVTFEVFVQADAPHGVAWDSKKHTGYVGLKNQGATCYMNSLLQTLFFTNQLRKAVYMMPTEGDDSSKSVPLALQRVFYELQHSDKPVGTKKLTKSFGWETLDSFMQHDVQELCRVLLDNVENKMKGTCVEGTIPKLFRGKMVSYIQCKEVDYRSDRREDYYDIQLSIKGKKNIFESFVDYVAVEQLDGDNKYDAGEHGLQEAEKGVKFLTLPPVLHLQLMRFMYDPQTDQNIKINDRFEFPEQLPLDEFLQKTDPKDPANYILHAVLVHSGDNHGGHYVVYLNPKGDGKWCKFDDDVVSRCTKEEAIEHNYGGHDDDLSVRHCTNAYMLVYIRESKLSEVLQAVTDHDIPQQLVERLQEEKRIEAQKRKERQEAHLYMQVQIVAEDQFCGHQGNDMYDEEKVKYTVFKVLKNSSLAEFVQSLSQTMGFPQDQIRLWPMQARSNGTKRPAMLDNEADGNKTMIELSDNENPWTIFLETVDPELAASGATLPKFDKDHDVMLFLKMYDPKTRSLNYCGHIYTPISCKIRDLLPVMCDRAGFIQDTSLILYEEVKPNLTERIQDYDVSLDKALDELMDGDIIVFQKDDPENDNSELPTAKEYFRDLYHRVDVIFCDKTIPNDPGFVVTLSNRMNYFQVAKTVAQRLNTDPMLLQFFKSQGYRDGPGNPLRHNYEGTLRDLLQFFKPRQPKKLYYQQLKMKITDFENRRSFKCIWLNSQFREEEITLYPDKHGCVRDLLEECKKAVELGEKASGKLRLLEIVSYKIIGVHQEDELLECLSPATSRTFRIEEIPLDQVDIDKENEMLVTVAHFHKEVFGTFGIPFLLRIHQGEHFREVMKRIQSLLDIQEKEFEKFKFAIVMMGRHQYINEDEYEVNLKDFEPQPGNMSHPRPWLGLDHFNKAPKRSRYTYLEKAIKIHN
Type: biochemical
Method: Activity for compounds described herein is provided in Table 2, wherein potency levels are provided as follows: (Potency: USP7 IC50: A<0.01 μM; B=0.01-0.1 μM; C=>0.1 μM.
In the case of `Cc1cc(Cl)cc(-c2ncnc3cc(CN4C(=O)[C@@H]5CCCN5C4=O)sc23)c1CN1[C@@H](C)CNC[C@@H]1C` [Example 88, (S)-2-((4-(5-chloro-2-(((2S,6S)-2,6-dimethylpiperazin-1-yl)methyl)-3-methylphenyl)thieno[3,2-d]pyrimidin-6-yl)methyl)tetrahydro-1H-pyrrolo[1,2-c]imidazole-1,3(2H)-dione], the IC50 is reported as < 0.01 µM.
For `Cc1cc(Cl)cc(-c2ncnc3cc(CN4C(=O)CCC4C)sc23)c1CN1[C@@H](C)CNC[C@@H]1C` (stereo partly drawn) [Example 91, 1-((4-(5-chloro-2-(((2S,6S)-2,6-dimethylpiperazin-1-yl)methyl)-3-methylphenyl)thieno[3,2-d]pyrimidin-6-yl)methyl)-5-methylpyrrolidin-2-one], the IC50 was > 0.1 µM.
`Cn1ccc(=O)n(Cc2cc3ncnc(-c4cc(Cl)cc(Cl)c4CC4CNCC(C)(C)O4)c3s2)c1=O` (stereo not drawn) [Example 252, 3-((4-(3,5-dichloro-2-((6,6-dimethylmorpholin-2-yl)methyl)phenyl)thieno[3,2-d]pyrimidin-6-yl)methyl)-1-methylpyrimidine-2,4(1H,3H)-dione] was tested, and the IC50 was < 0.01 µM.
For `Cc1cc(Cl)cc(-c2ncnc3cc(CN4C(=O)c5ccccc5C4=O)sc23)c1CC1CNCCO1` (stereo not drawn) [Example 179, 2-((4-(5-chloro-3-methyl-2-(morpholin-2-ylmethyl)phenyl)thieno[3,2-d]pyrimidin-6-yl)methyl)isoindoline-1,3-dione], the IC50 was < 0.01 µM.
With `Cc1cc(Cl)cc(-c2ncnc3cc(CN4CCCC4=O)sc23)c1CN1C[C@@H](C)NC[C@@H]1C` [Example 81, 1-((4-(5-chloro-2-(((2S,5R)-2,5-dimethylpiperazin-1-yl)methyl)-3-methylphenyl)thieno[3,2-d]pyrimidin-6-yl)methyl)pyrrolidin-2-one] the IC50 was > 0.1 µM.
`CCN1CCN(Cc2c(C)cc(Cl)cc2-c2ccnc3cc(CN4C(=O)CCC4=O)sc23)[C@@H](C)C1` [Example 11, (S)-1-((7-(5-chloro-2-((4-ethyl-2-methylpiperazin-1-yl)methyl)-3-methylphenyl)thieno[3,2-b]pyridin-2-yl)methyl)pyrrolidine-2,5-dione] was tested, and the IC50 was < 0.01 µM.
In the case of `Cc1cc(Cl)cc(-c2ccnc3cc(CN4C(=O)C5C(C4=O)C5(C)C)sc23)c1CN1[C@@H](C)CNC[C@@H]1C` (stereo partly drawn) [Example 28, 3-((7-(5-chloro-2-(((2S,6S)-2,6-dimethylpiperazin-1-yl)methyl)-3-methylphenyl)thieno[3,2-b]pyridin-2-yl)methyl)-6,6-dimethyl-3-azabicyclo[3.1.0]hexane-2,4-dione], the IC50 is reported as < 0.01 µM.
`Cc1cc(Cl)cc(-c2ncnc3cc(CN4C(=O)CC(C)(C)CC4=O)sc23)c1CN1C[C@@H](C)NC[C@@H]1C` [Example 70, 1-((4-(5-chloro-2-(((2S,5R)-2,5-dimethylpiperazin-1-yl)methyl)-3-methylphenyl)thieno[3,2-d]pyrimidin-6-yl)methyl)-4,4-dimethylpiperidine-2,6-dione] gave an IC50 of 0.01 to 0.1 µM.
In the case of `Cc1cc(Cl)cc(-c2ccnc3cc(CN4C(=O)C5CC5C4=O)sc23)c1CC1CNCC2(COC2)O1` (stereo not drawn) [Example 138, 3-((7-(2-((2,5-dioxa-8-azaspiro[3.5]nonan-6-yl)methyl)-5-chloro-3-methylphenyl)thieno[3,2-b]pyridin-2-yl)methyl)-3-azabicyclo[3.1.0]hexane-2,4-dione], the IC50 is reported as < 0.01 µM.
`CCN1CC(=O)N(Cc2cc3ncnc(-c4cc(Cl)cc(C)c4CN4C[C@@H](C)NC[C@@H]4C)c3s2)C1=O` [Example 83, 3-((4-(5-chloro-2-(((2S,5R)-2,5-dimethylpiperazin-1-yl)methyl)-3-methylphenyl)thieno[3,2-d]pyrimidin-6-yl)methyl)-1-ethylimidazolidine-2,4-dione] was tested, and the IC50 was < 0.01 µM.
With “3-((4-(2-((5-oxa-8-azaspiro[3.5]nonan-6-yl)methyl)-5-chloro-3-methylphenyl)thieno[3,2-d]pyrimidin-6-yl)methyl)-3-azabicyclo[3.1.0]hexane-2,4-dione [Example 221]” the IC50 was < 0.01 µM.
`Cc1cc(Cl)cc(-c2ncnc3cc(C(C)N4C(=O)C5C(C4=O)C5(C)C)sc23)c1C[C@@H]1CNCCO1` (stereo partly drawn) [Example 209, 3-(1-(4-(5-chloro-3-methyl-2-(((R)-morpholin-2-yl)methyl)phenyl)thieno[3,2-d]pyrimidin-6-yl)ethyl)-6,6-dimethyl-3-azabicyclo[3.1.0]hexane-2,4-dione] was tested, and the IC50 was < 0.01 µM.
For `Cc1cc(Cl)cc(-c2ccnc3cc(CN4C(=O)C5CC5C4=O)sc23)c1CC1CNCCO1` (stereo not drawn) [Example 102, 3-((7-(5-chloro-3-methyl-2-(morpholin-2-ylmethyl)phenyl)thieno[3,2-b]pyridin-2-yl)methyl)-3-azabicyclo[3.1.0]hexane-2,4-dione], the IC50 was < 0.01 µM.
With `Cc1cc(Cl)cc(-c2ccnc3cc(CN4C(=O)C5CC5C4=O)sc23)c1C(=O)N1[C@@H](C)CNC[C@@H]1C` (stereo partly drawn) [Example 35, 3-((7-(5-chloro-2-((2S,6S)-2,6-dimethylpiperazine-1-carbonyl)-3-methylphenyl)thieno[3,2-b]pyridin-2-yl)methyl)-3-azabicyclo[3.1.0]hexane-2,4-dione] the IC50 was 0.01 to 0.1 µM.
For `Cc1cc(Cl)cc(-c2ncnc3cc(CN4C(=O)COC4=O)sc23)c1CC1CNCCO1` (stereo not drawn) [Example 178, 3-((4-(5-chloro-3-methyl-2-(morpholin-2-ylmethyl)phenyl)thieno[3,2-d]pyrimidin-6-yl)methyl)oxazolidine-2,4-dione], the IC50 was < 0.01 µM.
For `Cc1cc(Cl)cc(-c2ncnc3cc(CNC4(CCC(=O)O)CC4)sc23)c1CC1CNCC(C)(C)O1` (stereo not drawn) [Example 202, 3-(1-(((4-(5-chloro-2-((6,6-dimethylmorpholin-2-yl)methyl)-3-methylphenyl)thieno[3,2-d]pyrimidin-6-yl)methyl)amino)cyclopropyl)propanoic acid], the IC50 was 0.01 to 0.1 µM.
For `Cc1cc(Cl)cc(-c2ccnc3cc(CN4C(=O)C5C(C4=O)C5(C)C)sc23)c1CC1CNCC(C)(C)O1` (stereo not drawn) [Example 97, 3-((7-(5-chloro-2-((6,6-dimethylmorpholin-2-yl)methyl)-3-methylphenyl)thieno[3,2-b]pyridin-2-yl)methyl)-6,6-dimethyl-3-azabicyclo[3.1.0]hexane-2,4-dione], the IC50 was < 0.01 µM.
For `Cc1cc(Cl)cc(-c2ccnc3cc(CN4C(=O)C5CC5C4=O)sc23)c1C[C@H]1CNCC(C)(C)O1` (stereo partly drawn) [Example 134, 3-((7-(5-chloro-2-(((S)-6,6-dimethylmorpholin-2-yl)methyl)-3-methylphenyl)thieno[3,2-b]pyridin-2-yl)methyl)-3-azabicyclo[3.1.0]hexane-2,4-dione], the IC50 was 0.01 to 0.1 µM.
In the case of `Cc1cc(Cl)cc(-c2ccnc3cc(CN4C(=O)CN(C)C4=O)sc23)c1CC1CNCC(C)(C)O1` (stereo not drawn) [Example 121, 3-((7-(5-chloro-2-((6,6-dimethylmorpholin-2-yl)methyl)-3-methylphenyl)thieno[3,2-b]pyridin-2-yl)methyl)-1-methylimidazolidine-2,4-dione], the IC50 is reported as < 0.01 µM.
In the case of `Cc1cc(Cl)cc(-c2ncnc3cc(CN4C(=O)C5CC5C4=O)sc23)c1CC1CNCCS1` (stereo not drawn) [Example 186, 3-((4-(5-chloro-3-methyl-2-(thiomorpholin-2-ylmethyl)phenyl)thieno[3,2-d]pyrimidin-6-yl)methyl)-3-azabicyclo[3.1.0]hexane-2,4-dione], the IC50 is reported as < 0.01 µM.
`Cc1cc(Cl)cc(-c2ncnc3cc(CN4C(=O)C5CC5C4=O)sc23)c1CC1OCCNC1(C)C` (stereo not drawn) [Example 159, 3-((4-(5-chloro-2-((3,3-dimethylmorpholin-2-yl)methyl)-3-methylphenyl)thieno[3,2-d]pyrimidin-6-yl)methyl)-3-azabicyclo[3.1.0]hexane-2,4-dione] was tested, and the IC50 was 0.01 to 0.1 µM.
